Data published in US4368194A, “Pharmacologically active amine boranes” (The United States of America as represented by the …, priority 1981, dated 1983).

Key:
[1] = test system: Cathepsin; assay: Lysosomal free cathepsin activity, liver homogenate; assay type: biochemical, rats; details: 5 μmoles; for Liver % Free Cathepsin Activity, pH5: in vitro, 20 min
Procedure: (§1) Lysosomal enzymatic assays - Sprague Dawley rats (about 160 g) were sacrificed, the liver excised, and a 10% homogenate (4x) in 0.25 M sucrose and 0.001 M (ethylenedinitrilo) tetra acetic acid, ph 7.2 was prepared.
(§2) Acid phosphatase activity (Gianetto et al., Biochem J., 59, 433 1955) was carried out by incubating with 0.1 Mβ-glycerol phosphate in 0.1 M acetate, pH 5.0 with 5 μmoles of test drugs in 1% carboxymethylcellulose (CMC) for 20 min with liver homogenate and 60 min with resuspended PMNs. Lysosome enzymes were released by 0.02% alkyl phenoxy polyethoxy ethanol-100 to obtain the total enzymatic activity. The reaction was stopped with 10% trichloroacetic acid and the solution centrifuged. Aliquots of the supernatant were assayed for inorganic phophate content by the method of Chen et al., Anal Chem., 28, 1756 (1956). Percent free acid phosphatase was calculated. Cathepsin activity was determined in an analagous manner except the substrate used was 2% azocasein (Schleuning et al., Methods in Enzymology, XLV, 330 1976) in 0.1 M acetate buffer pH 5.0. The supernatant was assayed for acid soluble peptide fragments at 366 nm. Percent free cathepsin activity was calculated.

[2] = test system: liver mitochondria; assay: Oxidative phosphorylation, α-ketoglutarate as substrate; assay type: biochemical, rats; details: 5 μmoles; for Oxidative Phosphorylation α Ketoglutarate State 3: ADP stimulated respiration; for Oxidative Phosphorylation α Ketoglutarate State 4: basal respiration
Procedure: (§3) Basal and adenosine diphosphate stimulated respiration on 10% liver homogenates was measured using succinate or αketoglutarate as substrate. See Glatt, et al., supra. The reaction vessel contained sucrose 55μ moles, KCl 22μ moles, K2 HPO4 22μ moles, test compounds at 5μ moles in 1% CMC and sodium succinate 90μ moles or αketoglutarate 60μ moles in a total volume of 1.8 ml. […] The rate of respiration was calculated at μl of O2 consumed/hr/mg wet weight of liver.

[3] = test system: Acid phosphatase; assay: Lysosomal free acid phosphatase activity, liver homogenate; assay type: biochemical, rats; details: 5 μmoles, in vitro; 20 min
Procedure: as §1, §2

[4] = test system: carrageenan induced edema in mouse foot pads; assay: Anti-inflammatory screen (carrageenan induced foot edema); assay type: in vivo, mice; details: mice
Procedure: CF1 male mice (about 30 g) were administered test drugs at 10 mg/kg in 0.05% polysorbate .80-water intraperitoneally 3 hr and 30 min prior to 0.05 ml of 2% carrageenan in 0.9% saline injected into the plantar surface of the right hind foot. Saline injected into the left hind foot served as a base line. After 3 hr, both feet were excised at the tibiotarsal (ankle) joint according to the modified (Roszkowski et al., J. Pharm. Exp. Ther., 179, 114 1971) method of Winter, resulting in an 87 mg net increase in the weight of the control animals' feet.

[5] = test system: Sprague Dawley rats; assay: Red and white blood cell counts after 3 weeks dosing; assay type: in vivo; details: dosing for three weeks intraperitoneally, rats
From the text: Hematocrits were also obtained.

[6] = in vivo; details: mouse
[7] = test system: cAMP levels in PMNs; assay: Cyclic-3',5'-adenosine monophosphate levels (cAMP) in PMNs; assay type: cell-based; details: 1 h; for activity at 5 µmol: pH 7.4, read-out: PMNs cAMP Level; for activation at 5 µmol: read-out: increase of cyclic adenosine monophosphate levels in PMNs
Procedure: (§4) Polymorphonuclear neutrophils (PMNs) were collected from the peritoneal cavity four hr after the injection of 35 ml of 0.5% oyster glycogen in isotonic saline (Orange et al., J. Exp. Med., 127, 767 1968). The PMNs were centrifuged down at 800 g for 20 min, washed, and resuspended in minumen essential medium (MEM) with 10% fetal calf serum pH 7.4.
Isolated PMNs were incubated with test drugs at 5μ moles for 1 hr at 37° C. in MEM at pH 7.4. The reaction was stopped with 6% trichloroacetic acid. The cyclic-3',5'-adenosine monophosphate levels were determined by the radioimmunoassay of Gilman, Proc. Natl. Acad. Sci. (USA), 67, 305 (1970), using 3H(G)-cyclic-3',5'-adenosine monophosphate (39.8 Cu/m mol). Results were calculated in p mole/10^7 PMNs cells.

[8] = test system: Acid phosphatase; assay: Lysosomal free acid phosphatase activity, PMNs; assay type: cell-based; details: 5 μmoles; for PMNs % Free Acid Phosphatase Activity, pH5: in vitro, 60 min
Procedure: as §4, §2

[9] = test system: Cathepsin; assay: Lysosomal free cathepsin activity, PMNs; assay type: cell-based; details: 5 μmoles; for PMNs % Free Cathespin Activity, pH5: in vitro, 60 min
Procedure: as §4, §2

[10] = molecular target: T1, prostaglandin synthetase from beef seminal vesicle (Bos taurus, UniProt O62664); assay: Prostaglandin synthetase activity; assay type: biochemical; details: for activity at 1 µM / inhibition at 1 µM: 10^-6 M
T1 construct: purchased; host or cells: beef seminal vesicle
T1 sequence (O62664 25-600): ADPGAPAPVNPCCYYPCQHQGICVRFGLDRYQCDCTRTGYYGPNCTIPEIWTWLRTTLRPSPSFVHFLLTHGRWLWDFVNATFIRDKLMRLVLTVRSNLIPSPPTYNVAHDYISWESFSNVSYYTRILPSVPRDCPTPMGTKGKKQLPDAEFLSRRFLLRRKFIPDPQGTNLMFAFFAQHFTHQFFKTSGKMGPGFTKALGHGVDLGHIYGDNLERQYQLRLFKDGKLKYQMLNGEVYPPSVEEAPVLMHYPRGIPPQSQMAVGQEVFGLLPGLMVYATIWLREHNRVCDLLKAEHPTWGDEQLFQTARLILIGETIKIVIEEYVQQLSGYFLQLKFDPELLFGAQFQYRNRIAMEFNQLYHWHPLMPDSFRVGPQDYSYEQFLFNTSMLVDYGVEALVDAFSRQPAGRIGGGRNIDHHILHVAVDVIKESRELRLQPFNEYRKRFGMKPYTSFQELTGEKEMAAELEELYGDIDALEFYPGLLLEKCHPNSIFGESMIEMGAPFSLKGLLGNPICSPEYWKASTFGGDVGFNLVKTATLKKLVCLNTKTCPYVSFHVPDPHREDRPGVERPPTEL
Procedure: After 1 hr at 37° C. the reaction was stopped with 1 N HCl and extracted with ethyl ether and evaporated. […] The plates were dried and developed in iodine vapor and with the use of prostaglandin standards the appropriate areas were scraped and counted for ^3 H content. Indometacin was used as a standard at 10^-4 M concentration. Test drugs were used at 10^-6 M.

[11] = test system: liver mitochondria; assay: Oxidative phosphorylation, succinate as substrate; assay type: biochemical, rats; details: 5 μmoles; for Oxidative Phosphorylation Succinate State 3: ADP stimulated respiration; for Oxidative Phosphorylation Succinate State 4: basal respiration
Procedure: as §3

[12] = test system: CF1 male mice; assay: Writhing reflex (acetic acid); assay type: in vivo; details: mice
Procedure: CF1 male mice were administered test drugs at 20 mg/kg intraperitoneally 20 min (see Hendershat et al., J. Pharmacol Exp. Ther. 125, 237 1959) prior to the administration of 0.5 ml of 0.6% acetic acid (Vingar et al., European J. PHarmacol, 37, 23 1976). After 5 min the number of stretches, characterized by repeated contractures of the abdominal musculature accompanied by extension of the hind limbs, was counted for the next 10 min. The control mice had 78 stretch reflexes per 10 min.

[13] = test system: Male Sprague Dawley rats; assay: Chronic adjuvant arthritic screen; assay type: in vivo; details: indomethacin tested at 10 mg/kg, rats
Procedure: Male Sprague Dawley rats (about 160 g) were injected at the base of the tail with 0.2 ml of solution of killed and dried Mycobacterium butyricum and digitonin in mineral oil (see Waksman et al., J. Immunol., 85, 403 1960). Test drugs were administered intraperitoneally commencing on day 3 through day 20 at 2.5 mg/kg/day. Animals were sacrificed on day 21, and the feet were excised and weighed.

[14] = 1 h, read-out: Prostaglandin Synthesis
[15] = read-out: inhibition of prostaglandin synthesis
[16] = indomethacin tested at 10 mg/kg

Row | Structure (SMILES) | inhibition of free proteolytic cathepsin activity of liver [1] | Liver % Free Cathepsin Activity, pH5 [1] [% Control] | Oxidative Phosphorylation α Ketoglutarate State 3 [2] [% Control] | Oxidative Phosphorylation α Ketoglutarate State 4 [2] [% Control] | Liver % Free Acid Phosphatase Activity, pH5 [3] [% Control] | alteration of the red blood or white blood cell count/cu mm [5] | LD50 [6] [mg/kg] | activity at 5 µmol [7] [%] | activation at 5 µmol [7] [%] | PMNs % Free Acid Phosphatase Activity, pH5 [8] [% Control] | PMNs % Free Cathespin Activity, pH5 [9] [% Control] | activity at 1 µM [10, 14] [%] | both states 3 and 4 respiration with succinate [11] | Oxidative Phosphorylation Succinate State 3 [11] [% Control] | Oxidative Phosphorylation Succinate State 4 [11] [% Control] | inhibition at 1 µM [10, 15] [%] | other results
1 | C[N+]1([BH2-]C#N)CCOCC1 [XIV, O(CH2 CH2)2 N(CH3).BH2 CN] | at least 75% | 13 ± 5 | 51 ± 16 | 140 ± 47 | 68 ± 7 | no alteration | 23 | 165 | 65 | 50 ± 3 | 37 ± 5 | 38 ± 3 | inhibited | 36 ± 5 | 62 ± 10 |  | Anti-inflammatory Screen ([4]; 1/3 dose (of 10 mg/kg × 2)): 91 % Control; inhibition of free acid phosphatase activity in PMNs [8]: 50%; Writhing Reflex ([12]; 1/3 dose (of 20 mg/kg)): 78 % Control
2 | C[N+](C)([BH2-]C#N)CCC#N [XIX, 3-Dimethylaminopropionitrile-cyanoborane] | at least 75% | 15 ± 3 | 33 ± 8 | 105 ± 33 | 66 ± 4 | no alteration | 140 | 199 | 99 | 100 ± 9 | 17 ± 5 | 53 ± 7 | inhibited | 24 ± 7 | 43 ± 16 | > 30 | Anti-inflammatory Screen ([4]; 10 mg/kg × 2 intraperitoneally): 74 % Control; inhibition of PMN cathepsin activity [9]: at least 82%; Writhing Reflex ([12]; 20 mg/kg intraperitoneally): 89 % Control
3 | COc1ccc2c(c1)c(CC(=O)O)c(C)n2C(=O)c1ccc(Cl)cc1 [Indomethacin, reference compound] |  | 67 ± 6 |  |  | 86 ± 4 |  |  | 80 |  | 100 ± 2 | 100 ± 1 |  |  |  |  | 24 | Anti-Arthritic Screen [13]: 27 % Control; Anti-inflammatory Screen [4, 16]: 22 % Control; inhibition at 100 µM ([10]; 10^-4 M, read-out: inhibition of prostaglandin synthesis): 36%; activity at 100 µM ([10]; 1 h, 10^-4 M (indomethacin), read-out: Prostaglandin Synthesis): 64 ± 2%; Writhing Reflex [12, 16]: 43 % Control
